We go through 25 compounds from ChEMBL document CHEMBL1201862, “PubChem BioAssay data set” (2004).

A word on the AC50: it is the concentration giving half of the maximal activity seen.

In assay [1] the target is T1, Polyadenylate-binding protein 1 (Homo sapiens, UniProt P11940). The assay is described as follows: MLLE binding blockers, Cy5 peptide tracer – biochemical, fluorescence polarization, Cy5-PAM2 peptide, secondary, miRNA deadenylation inhibitor project, dose response (AID 602260). Format: functional. As to conditions: read-out: IC50_Mean. A general note: Polarisation of emitted light reports the rotation of a fluorescent probe.

Assay [2] addresses T1, Polyadenylate-binding protein 1. Description: MLLE domain peptide-binding blockers, IC50 – biochemical, fluorescence polarization, FITC-PAM2 peptide, dose response (AID 602259). It is filed as functional. The settings on record: read-out: IC50_Mean.
Another assay addresses T2, Protein skinhead-1 (Caenorhabditis elegans, UniProt P34707).
T2 sequence (P34707 whole entry): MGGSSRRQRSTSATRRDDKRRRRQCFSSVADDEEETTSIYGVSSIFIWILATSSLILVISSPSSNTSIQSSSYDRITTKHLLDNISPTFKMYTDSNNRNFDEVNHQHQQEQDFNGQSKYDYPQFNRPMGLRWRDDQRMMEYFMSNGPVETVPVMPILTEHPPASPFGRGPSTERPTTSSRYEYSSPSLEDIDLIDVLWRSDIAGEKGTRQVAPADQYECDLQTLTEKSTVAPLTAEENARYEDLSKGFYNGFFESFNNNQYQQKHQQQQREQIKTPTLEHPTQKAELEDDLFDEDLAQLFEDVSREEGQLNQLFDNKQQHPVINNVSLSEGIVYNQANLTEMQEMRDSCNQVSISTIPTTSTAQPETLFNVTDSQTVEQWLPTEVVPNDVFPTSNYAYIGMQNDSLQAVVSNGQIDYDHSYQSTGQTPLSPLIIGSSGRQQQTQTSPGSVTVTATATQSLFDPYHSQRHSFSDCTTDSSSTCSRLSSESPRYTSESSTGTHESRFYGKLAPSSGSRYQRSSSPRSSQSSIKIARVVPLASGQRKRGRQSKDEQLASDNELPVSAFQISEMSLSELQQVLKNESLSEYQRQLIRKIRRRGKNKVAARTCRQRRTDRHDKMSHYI
Format: functional.

A short description of assay [3]: viability of PTEN-deleted HCT116 cells – cell-based, HCT116 PTEN knockout, dose response (AID 1047).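 Note: HCT116 colon tumor cells with PTEN knocked out; cells exposed to compound for 60 hours before readout; potency for loss of cell viability measured by luminescence.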 It is filed as functional.
Assay [4] is described as follows: viability of HCT116 lacking mutant beta-catenin – cell-based, human colon tumor, dose response (AID 1045).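 Note: HCT116 colon tumor cells with beta catenin knocked out; cells exposed to compound for 60 hours.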 Format: functional.
The target in assay [5] is T3, Corticotropin-releasing factor receptor 2/Corticotropin-releasing factor-binding protein (Homo sapiens, UniProt P24387+Q13324).
T3 sequence (Q13324 whole entry): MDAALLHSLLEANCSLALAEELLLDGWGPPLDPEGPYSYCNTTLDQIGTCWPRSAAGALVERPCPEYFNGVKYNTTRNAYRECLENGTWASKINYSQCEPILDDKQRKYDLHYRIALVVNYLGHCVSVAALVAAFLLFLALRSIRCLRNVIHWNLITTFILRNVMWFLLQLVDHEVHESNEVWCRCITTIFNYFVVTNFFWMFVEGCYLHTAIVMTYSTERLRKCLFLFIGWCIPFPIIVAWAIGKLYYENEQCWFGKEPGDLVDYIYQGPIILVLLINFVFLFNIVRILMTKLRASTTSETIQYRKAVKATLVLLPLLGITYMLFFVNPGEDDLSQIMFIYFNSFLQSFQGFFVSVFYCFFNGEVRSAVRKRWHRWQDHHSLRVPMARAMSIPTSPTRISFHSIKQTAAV
T3 sequence (P24387 whole entry): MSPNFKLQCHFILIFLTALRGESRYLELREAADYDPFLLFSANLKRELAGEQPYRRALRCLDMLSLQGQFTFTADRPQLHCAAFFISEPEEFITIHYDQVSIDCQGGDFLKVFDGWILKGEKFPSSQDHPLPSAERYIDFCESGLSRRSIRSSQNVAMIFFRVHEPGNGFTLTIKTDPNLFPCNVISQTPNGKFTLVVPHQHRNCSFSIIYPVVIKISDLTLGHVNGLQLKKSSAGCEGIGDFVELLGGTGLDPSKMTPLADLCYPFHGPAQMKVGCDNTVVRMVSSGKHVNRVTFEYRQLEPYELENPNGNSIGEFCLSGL
Description: Dose Response confirmation of uHTS hits for small molecule antagonists of the CRF-binding protein and CRF-R2 receptor complex. Format: functional. The settings on record: read-out: IC50_Mean.

In assay [6] the target is T3, Corticotropin-releasing factor receptor 2/Corticotropin-releasing factor-binding protein. The assay is described as follows: activators of CRF receptor 2 with binding protein – uHTS hits, confirmation (AID 602473). As to conditions: read-out: EC50_Mean. Format: functional.
The nature of assay [7]: Luminescence Cell-Based Dose Confirmation HTS to Identify Activators of 5'UTR Stem-Loop Driven Alpha-Synuclein mRNA Translation in H4 Neuroglioblastoma Cells. [Related pubchem assays: 1829 (Project Summary), 1814 (Primary HTS)]. It is filed as functional.
A short description of assay [8]: Luminescence Cell-Based Dose Response HTS to Identify Activators of Luciferase Translation or Activity in H4 […] Cells. [Related pubchem assays: 1829 (Project Summary), 1814 (Primary HTS)]. Format: functional.
A further assay has as its system H4. The assay is described as follows: Luminescence Cell-Based Dose Response HTS to Identify Activators of 5'UTR Stem-Loop Driven Prion Protein mRNA Translation in H4 Neuroglioblastoma Cells. [Related pubchem assays: 1829 (Project Summary), 1814 (Primary HTS)]. It is filed as functional. The settings on record: Homo sapiens.
The next assay concerns the target T4, Protein RecA (Mycobacterium tuberculosis, UniProt P9WHJ3).
T4 sequence (P9WHJ3 whole entry): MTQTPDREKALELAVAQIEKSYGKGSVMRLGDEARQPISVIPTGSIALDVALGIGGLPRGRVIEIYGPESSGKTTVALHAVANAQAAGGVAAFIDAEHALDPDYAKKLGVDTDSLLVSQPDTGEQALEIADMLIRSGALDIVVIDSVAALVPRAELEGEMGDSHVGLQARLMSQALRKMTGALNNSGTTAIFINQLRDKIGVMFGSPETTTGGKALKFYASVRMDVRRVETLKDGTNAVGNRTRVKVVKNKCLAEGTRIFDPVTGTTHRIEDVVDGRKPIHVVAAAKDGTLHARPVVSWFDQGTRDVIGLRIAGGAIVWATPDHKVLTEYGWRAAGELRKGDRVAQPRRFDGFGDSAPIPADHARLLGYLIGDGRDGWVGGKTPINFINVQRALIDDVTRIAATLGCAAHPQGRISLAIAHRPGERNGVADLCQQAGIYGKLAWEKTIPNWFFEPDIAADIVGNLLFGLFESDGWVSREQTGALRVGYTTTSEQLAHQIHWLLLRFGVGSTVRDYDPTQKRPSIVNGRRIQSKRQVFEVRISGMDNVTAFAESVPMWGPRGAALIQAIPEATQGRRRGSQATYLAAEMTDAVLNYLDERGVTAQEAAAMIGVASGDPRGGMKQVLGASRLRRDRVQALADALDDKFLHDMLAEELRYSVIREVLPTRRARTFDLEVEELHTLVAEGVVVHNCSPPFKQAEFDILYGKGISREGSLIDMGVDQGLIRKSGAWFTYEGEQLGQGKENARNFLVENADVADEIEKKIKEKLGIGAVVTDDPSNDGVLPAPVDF
The assay is described as follows: Fluorescence Cell-Free Homogeneous Dose Retest to Identify Inhibitors of RecA-Intein Splicing Activity. [Related pubchem assays (depositor defined):AID2097, AID2223, AID489010, AID492950]. Format: functional.

A short description of assay [9]: NIH-3T3 fibroblast cytotoxicity, dose response, cytotoxicity control, cell-based, fluorescence, Alamar Blue, secondary assay (AID 2327).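 Note: NIH-3T3 mouse fibroblasts cultured with fluconazole at 8 µg/mL.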 It is filed as functional. (The colour change of resazurin is a common sign of viable cells or microbes.)
The nature of assay [10]: fluconazole-exposed Candida albicans growth modulators – fluorescence, retest, confirmation (AID 2467). Format: functional, cell-based.
A further assay deals with INS1. Description: INS-1E survival protection against cytokine death – cell-based, luminescence, retest, dose response (AID 449756).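 Note: cell death triggered by IL-1 beta plus TNF-alpha plus IFN-gamma mixture; protective hits raise ATP signal compared with cytokine alone wells.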 Format: functional. As to conditions: Rattus norvegicus, INS1.

Molecules are shown by their SMILES. Active and inactive are the calls of the source.

T1 sequence (P11940 whole entry): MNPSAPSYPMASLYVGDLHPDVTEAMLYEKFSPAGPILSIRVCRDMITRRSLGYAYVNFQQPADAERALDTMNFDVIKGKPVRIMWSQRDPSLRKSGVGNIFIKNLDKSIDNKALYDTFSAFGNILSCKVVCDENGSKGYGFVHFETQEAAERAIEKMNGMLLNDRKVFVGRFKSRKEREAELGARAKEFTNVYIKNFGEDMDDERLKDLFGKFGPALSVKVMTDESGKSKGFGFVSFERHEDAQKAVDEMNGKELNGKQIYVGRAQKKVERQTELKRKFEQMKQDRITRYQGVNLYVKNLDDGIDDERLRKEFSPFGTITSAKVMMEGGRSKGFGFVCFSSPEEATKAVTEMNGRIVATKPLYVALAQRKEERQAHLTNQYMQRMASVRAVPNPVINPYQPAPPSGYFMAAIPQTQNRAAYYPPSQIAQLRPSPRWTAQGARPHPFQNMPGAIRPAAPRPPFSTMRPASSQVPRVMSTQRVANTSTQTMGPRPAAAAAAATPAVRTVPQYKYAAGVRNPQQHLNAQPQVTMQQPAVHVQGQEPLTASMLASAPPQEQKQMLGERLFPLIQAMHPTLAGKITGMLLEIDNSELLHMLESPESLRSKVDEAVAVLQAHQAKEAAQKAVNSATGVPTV

As for `Cc1c(NC(=S)NC(=O)c2cc3ccccc3o2)cccc1C(=O)O`, the IC50 in assay [1] and in assay [2] was > 66 µM (inactive) each time.
For `COc1ccc(Cl)cc1NC(=O)CN(C(=O)c1ccco1)C1CCCCC1`, the IC50 in [1] and in assay [2] was > 66 µM (inactive) throughout.
Regarding `O=C(Nc1ccc2oc(-c3cccnc3)nc2c1)c1ccc(Br)o1`, the IC50 at Protein skinhead-1 was > 100 µM (inactive).
`CC(=O)O[C@H]1[C@@H](O)[C@H](O)[C@H](Oc2c(O)c(C)c3c4c2[C@@H](C)CC[C@@H]4[C@@H](C)C[C@@H]3C=C(C)C)O[C@H]1C`: the IC50 on Protein skinhead-1 was > 100 µM (inactive).
On the same count and under the same terms, for `C=CCNc1nc(-c2ccc([N+](=O)[O-])cc2)cs1` the value was 23.7 µM (active).
Take `O=Cc1ccc(OC(=O)c2cc(Cl)nc3ccccc23)cc1`: the IC50 in assay [1] and in assay [2] was > 66 µM (inactive) throughout.
Take `COc1cc2cc(/C=C/C(=O)c3ccco3)c(Cl)nc2cc1OC`: the EC50 was 11.6 µM (active) in assay [3] and 10.1 µM (active) in assay [4].
As for `CCN1C(=O)/C(=C2\Sc3ccccc3N2CC)OC1=S`, the IC50 in assay [1] and in assay [2] was > 66 µM (inactive) each time.
In the case of `O=c1cc(-c2ccc(F)cc2)oc2ccccc12`, the IC50 in assay [5] was > 47.1 µM (inactive); at Protein skinhead-1 it was 16.2 µM (active). The EC50 in assay [6] was > 53 µM (inactive).
As to `CCOC(=O)c1cc2cc3ccccc3cc2[nH]1`, the EC50 in assay [7] is 0.164 µM (active); in [8] it was 0.191 µM (active); in the assay with H4, > 120 µM (not active); on Protein RecA it was > 380 µM (inactive). For the same compound, the IC50 on Protein skinhead-1 is > 100 µM (inactive).
For the compound `CCOc1ccc2c(c1)n([O-])c1c([n+]2=O)CCCC1`, the IC50 in [1] and in [2] was > 66 µM (inactive) each time.
In the case of `CCOC(=O)/C(=C/c1ccc(N2CCC(c3ccccc3)=N2)cc1)C(C)=O`, the figures for the EC50 in [3] and in [4] were 0.014 µM (active) and 26.7 µM (active), respectively.
For the compound `CCOC(=O)/C=c1\s/c(=C\c2ccc(C(F)(F)F)cc2)c(=O)n1CC(=O)NCc1ccco1`, the EC50 in assay [3] is 35.9 µM (active); in [4], 45.9 µM (active).
Take `CS(=O)(=O)N1N=C(c2cccs2)CC1c1ccccc1O` (configuration not stated): the IC50 on Protein skinhead-1 is > 100 µM (inactive).
Take `COC(=O)/C=C1\SC(NC(=O)c2ccc(C)cc2)=NC1=O`: the IC50 in assay [1] and in assay [2] was > 66 µM (inactive) in each case.
As for `Cc1ccc(-[n+]2c(-c3ccccc3)cn3c2CCC3)cc1`, the values for the EC50 in [9] and in assay [10] were > 150 µM (inconclusive) and > 38 µM (not active), respectively. Besides, the AC50 in the assay on INS1 is 2.83 µM (active).
For `Cc1ccc(CNC(=O)CSc2nccn(-c3ccc(C)c(F)c3)c2=O)cc1`, the IC50 in assay [1] and in [2] was > 66 µM (inactive) throughout.
Take `C#CCNC(=O)C1=C[C@@H](c2cn(C(C)=O)c3ccccc23)C[C@@H](OCCCCO)O1`: the IC50 on Protein skinhead-1 is > 100 µM (inactive).
In the case of `COc1cccc(/C=N/NC(=O)CNC(=O)C2COc3ccccc3O2)c1O` (configuration not stated), the EC50 in assay [3] is 13.1 µM (active); in assay [4] it was 10.9 µM (active).
`CCCCN1C(=O)C(O)(CC(=O)c2ccco2)c2cc(Br)ccc21` (configuration not stated): the EC50 in assay [3] is 7.11 µM (active); in assay [4], 5.01 µM (active).
With `CC1=NN(c2ccccc2)C(=O)/C1=C\C=C1\N(C)c2ccccc2C1(C)C`, the IC50 on Protein skinhead-1 was 42.5 µM (active).
On the same count and under the same terms, in the case of `COc1ccc(S(=O)(=O)Nc2ccc(S(=O)(=O)Nc3ccc(F)cc3)cc2)cc1C` it was > 100 µM (inactive); in that of `O=C(c1ccc(S(=O)(=O)NCc2ccco2)cc1)N1CCN(c2ccc(F)cc2)CC1`, > 100 µM (inactive).
In the case of `CCNC(=O)c1sc(=S)n(-c2ccc(C)cc2)c1N`, the IC50 in assay [1] and in assay [2] was > 66 µM (inactive) in each case.
With `Cn1nnc(NC(=S)NC(=O)c2ccc3ccccc3c2)n1`, the IC50 in assay [1] and in assay [2] was > 66 µM (inactive) in each case.
